Format in all cases: biochemical
For one assay, the target named is T1, JAK3 (Homo sapiens, UniProt P52333).
T1 construct: purchased Invitrogen Corporation, Carlsbad, Calif; IVGN PV4080
T1 sequence (P52333 1-1124): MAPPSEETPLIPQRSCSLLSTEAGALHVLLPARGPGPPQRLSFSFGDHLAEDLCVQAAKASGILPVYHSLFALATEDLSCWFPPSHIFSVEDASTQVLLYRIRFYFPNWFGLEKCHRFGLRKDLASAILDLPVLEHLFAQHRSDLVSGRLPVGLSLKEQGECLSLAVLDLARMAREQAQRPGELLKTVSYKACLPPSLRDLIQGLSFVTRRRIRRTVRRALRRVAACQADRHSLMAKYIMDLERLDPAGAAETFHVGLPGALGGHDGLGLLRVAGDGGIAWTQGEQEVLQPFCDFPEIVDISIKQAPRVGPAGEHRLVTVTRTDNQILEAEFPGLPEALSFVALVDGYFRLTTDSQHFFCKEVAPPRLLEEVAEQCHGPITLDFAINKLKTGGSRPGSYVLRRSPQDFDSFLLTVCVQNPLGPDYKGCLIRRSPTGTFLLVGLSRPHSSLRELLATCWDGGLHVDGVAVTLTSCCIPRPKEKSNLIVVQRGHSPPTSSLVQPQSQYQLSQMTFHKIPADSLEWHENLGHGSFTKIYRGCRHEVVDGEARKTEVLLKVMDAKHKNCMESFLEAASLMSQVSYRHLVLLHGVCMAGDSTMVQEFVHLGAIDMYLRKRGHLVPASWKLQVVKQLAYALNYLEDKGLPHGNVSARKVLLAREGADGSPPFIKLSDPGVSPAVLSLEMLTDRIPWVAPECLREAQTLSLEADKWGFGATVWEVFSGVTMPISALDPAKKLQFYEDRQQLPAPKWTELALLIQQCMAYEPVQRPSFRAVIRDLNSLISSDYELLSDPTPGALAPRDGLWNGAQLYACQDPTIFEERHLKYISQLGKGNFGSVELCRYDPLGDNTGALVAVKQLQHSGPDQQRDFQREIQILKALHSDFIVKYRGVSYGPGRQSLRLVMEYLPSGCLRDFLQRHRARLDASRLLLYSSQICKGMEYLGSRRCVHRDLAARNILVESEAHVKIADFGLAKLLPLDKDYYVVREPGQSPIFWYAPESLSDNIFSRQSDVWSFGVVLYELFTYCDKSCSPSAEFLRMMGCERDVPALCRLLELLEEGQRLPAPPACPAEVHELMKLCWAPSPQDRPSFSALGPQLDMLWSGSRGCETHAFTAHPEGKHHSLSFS
Put plainly: JAK3 Inhibition Assay (Omnia kinase fluorescence peptide substrate). Particulars: averaged IC50 ranges; 10 μM (Km app) or 1 mM ATP, 2.5 nM JAK3. The essentials: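 IC50 is the concentration giving 50 percent of control on a 4-parameter logistic fit of 10-point, 3-fold dilutions from a 10 μM top dose, at 2% final DMSO. Kinetic Sox fluorescence (360/485 nm) was monitored every 50 s for 45 min. Mix: JAK3 2.5 nM, Omnia Y7 peptide 10 μM, ATP 10 μM (Km app) or 1 mM, in HEPES pH 7.4 buffer with MgCl2, Triton X-100 and DTT.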

Assay [1] deals with Tyk2, JAK1, JAK2 and JAK3. As to the kind of experiment: in vitro assays (Examples A, B, C and D) taken together. Particulars: Reference Examples; statement in words. The text has this:
The assays described in Examples A, B, C and D for the determination of Tyk2, JAK1, JAK2 and JAK3 kinase activity, respectively, utilized the Omnia® Kinase fluorescence peptide substrate-based technology (Invitrogen). The specific components of the assay mixture are described in Examples A, B, C and D. In these assays, Mg^2+ is chelated upon phosphorylation of the Omnia peptide by the kinase to form a bridge between the chelation-enhanced fluorophore Sox and the phosphate, resulting in an increase in fluorescence emission at 485 nm when excited at […]. The reactions were therefore read at excitation 360 nm and emission was measured at 485 nm every 50 seconds for 45 minutes using a PerkinElmer EnVision Multilabel Plate Reader.
The final buffer conditions for Tyk2, JAK1, JAK2, and JAK3 assays were as follows: 25 mM HEPES, pH 7.4, 10 mM MgCl2, 0.01% Triton X-100 and 1 mM DTT.
Compounds were prepared at 50× the final concentration in DMSO by conducting 3-fold serial dilutions from a 500-μM intermediate dilution to give a 10-point dosing curve having a high dose of 10 μM. Two-μL aliquots of these were transferred to a fresh plate for a ten-fold intermediate dilution with assay buffer. Five-μL aliquots of the diluted compounds were then transferred to 20-μL of assay mixtures described in Examples A, B, C and D for a final concentration of DMSO of 2%. A standard or reference compound was typically included on each assay plate to validate that plate. For each plate, percent of control (POC) values were calculated for each well according to the following equation: […]
Compounds of Formula I were screened for their ability to inhibit Tyk2 using the general enzyme inhibition assay method, in which the assay mixture contained 10 μM (Km app) or 1 mM ATP, 8 μM Omnia® Y12 peptide (Catalog #IVGN KPZ3121C; Invitrogen Corporation, Carlsbad, Calif.) and 2 nM Tyk2 in a total volume of 20 μL. Human Tyk2 kinase domain, comprising amino acids 886 to 1187 with 10 additional histidine residues (histidine tag) on the carboxy terminus, was expressed and purified from bacculovirus in-house at Array BioPharma Inc. (Boulder, Colo.). The histidine tag was cleaved after purification using standard conditions.
Compounds of Formula I were screened for their ability to inhibit JAK1 using the general enzyme inhibition assay method, in which the assay mixture contained 40 μM (Km app) or 1 mM ATP, 8 μM Omnia® Y12 peptide (Catalog #IVGN KPZ3121C; Invitrogen Corporation, Carlsbad, Calif.) and 15 nM JAK1 in a total volume of 20 μL. JAK1 was purchased from Invitrogen Corporation, Carlsbad, Calif. (catalog #IVGN PV4775).
Compounds of Formula I were screened for their ability to inhibit JAK2 using the general enzyme inhibition assay method, in which the assay mixture contained 25 μM (Km app) or 1 mM ATP, 10 μM Omnia® Y7 peptide (Catalog #IVGN KNZ3071C, Invitrogen Corporation, Carlsbad, Calif.) and 5 nM JAK2 in a total volume of 20 μL. JAK2 was purchased from Invitrogen Corporation, Carlsbad, Calif. (catalog #IVGN PV4288).
Compounds of Formula I were screened for their ability to inhibit JAK3 using the general enzyme inhibition assay method, in which the assay mixture contained 10 μM (Km app) or 1 mM ATP, 10 μM Omnia® Y7 peptide (Catalog #IVGN KNZ3071C, Invitrogen Corporation, Carlsbad, Calif.) and 2.5 nM JAK3 in a total volume of 20 μL. JAK3 was purchased from Invitrogen Corporation, Carlsbad, Calif. (catalog #IVGN PV4080).

The target in a further assay is T2, JAK2 (Homo sapiens, UniProt O60674).
T2 construct: purchased Invitrogen Corporation, Carlsbad, Calif; IVGN PV4288
Put plainly: JAK2 Inhibition Assay (Omnia kinase fluorescence peptide substrate). Particulars: averaged IC50 ranges; 25 μM (Km app) or 1 mM ATP, 5 nM JAK2.

The target of a further assay is T3, JAK1 (Homo sapiens, UniProt P23458).
T3 construct: purchased Invitrogen Corporation, Carlsbad, Calif; IVGN PV4775
As to the kind of experiment: JAK1 Inhibition Assay (Omnia kinase fluorescence peptide substrate). Particulars: averaged IC50 ranges; 40 μM (Km app) or 1 mM ATP, 15 nM JAK1. The essentials:
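15 nM JAK1, 8 μM Omnia Y12 peptide, 40 μM (Km app) or 1 mM ATP; 25 mM HEPES pH 7.4, 10 mM MgCl2, 2% DMSO. Fluorescence (ex 360/em 485 nm) read every 50 s over 45 min. IC50 by 4-parameter fit of percent of control, top dose 10 μM.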

For the next assay, the target named is T4, Human Tyk2 kinase domain (Homo sapiens, UniProt P29597).
T4 construct: comprising amino acids 886 to 1187; His10 (10 histidine residues) (C, cleaved yes); made in house
T4 sequence (P29597 886-1187): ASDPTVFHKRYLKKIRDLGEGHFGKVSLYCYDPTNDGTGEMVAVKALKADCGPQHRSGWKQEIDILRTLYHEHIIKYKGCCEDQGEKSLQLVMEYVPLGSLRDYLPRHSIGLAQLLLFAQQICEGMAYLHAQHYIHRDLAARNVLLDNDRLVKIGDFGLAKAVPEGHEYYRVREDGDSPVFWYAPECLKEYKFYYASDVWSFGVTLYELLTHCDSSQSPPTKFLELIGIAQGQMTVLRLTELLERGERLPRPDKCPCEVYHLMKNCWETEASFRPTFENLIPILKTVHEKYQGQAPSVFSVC
As to the kind of experiment: Tyk2 Inhibition Assay (Omnia kinase fluorescence peptide substrate). Conditions: averaged IC50 ranges; 10 μM (Km app) or 1 mM ATP, 2 nM Tyk2. The essentials:
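Phosphorylation of 8 μM Omnia Y12 peptide followed kinetically by Sox fluorescence, ex 360/em 485 nm, every 50 s for 45 min. Enzyme: 2 nM Tyk2 kinase domain (aa 886–1187, His tag removed); ATP at 10 μM (Km app) or 1 mM; buffer HEPES pH 7.4 with MgCl2, Triton X-100, DTT. 10-point curves up to 10 μM, IC50 from 4-parameter logistic fit.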

A value given as a limit tells only on which side of the number the result lay.

T2 sequence (O60674 whole entry): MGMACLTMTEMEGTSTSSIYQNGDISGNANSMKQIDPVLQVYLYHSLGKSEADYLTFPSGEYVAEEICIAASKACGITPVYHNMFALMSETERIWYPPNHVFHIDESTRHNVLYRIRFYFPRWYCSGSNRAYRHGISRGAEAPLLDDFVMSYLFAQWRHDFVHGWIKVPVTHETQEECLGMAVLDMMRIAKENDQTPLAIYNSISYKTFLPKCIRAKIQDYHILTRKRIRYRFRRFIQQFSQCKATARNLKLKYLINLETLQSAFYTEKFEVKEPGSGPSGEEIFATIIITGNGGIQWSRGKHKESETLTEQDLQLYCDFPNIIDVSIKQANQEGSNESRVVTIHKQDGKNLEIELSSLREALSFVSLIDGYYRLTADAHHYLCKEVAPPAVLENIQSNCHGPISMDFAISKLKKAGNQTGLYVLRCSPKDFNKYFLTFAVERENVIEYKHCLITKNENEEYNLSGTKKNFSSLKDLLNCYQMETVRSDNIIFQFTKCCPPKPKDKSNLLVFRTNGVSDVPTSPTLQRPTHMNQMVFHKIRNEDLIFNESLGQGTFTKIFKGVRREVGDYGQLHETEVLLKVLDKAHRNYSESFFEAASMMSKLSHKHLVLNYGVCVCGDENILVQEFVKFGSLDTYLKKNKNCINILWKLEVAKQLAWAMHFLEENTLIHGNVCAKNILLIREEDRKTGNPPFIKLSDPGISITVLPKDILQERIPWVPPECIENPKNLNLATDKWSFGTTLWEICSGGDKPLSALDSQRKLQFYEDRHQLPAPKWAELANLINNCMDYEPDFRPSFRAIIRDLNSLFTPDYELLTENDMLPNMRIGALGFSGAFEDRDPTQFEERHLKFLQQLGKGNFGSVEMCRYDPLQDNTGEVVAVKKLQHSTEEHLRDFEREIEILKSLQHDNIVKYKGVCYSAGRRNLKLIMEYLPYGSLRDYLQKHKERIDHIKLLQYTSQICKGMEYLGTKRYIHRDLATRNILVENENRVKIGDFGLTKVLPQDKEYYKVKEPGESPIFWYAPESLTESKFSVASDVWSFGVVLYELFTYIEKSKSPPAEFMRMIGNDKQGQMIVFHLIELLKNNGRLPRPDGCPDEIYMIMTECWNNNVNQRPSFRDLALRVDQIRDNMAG
T3 sequence (P23458 whole entry): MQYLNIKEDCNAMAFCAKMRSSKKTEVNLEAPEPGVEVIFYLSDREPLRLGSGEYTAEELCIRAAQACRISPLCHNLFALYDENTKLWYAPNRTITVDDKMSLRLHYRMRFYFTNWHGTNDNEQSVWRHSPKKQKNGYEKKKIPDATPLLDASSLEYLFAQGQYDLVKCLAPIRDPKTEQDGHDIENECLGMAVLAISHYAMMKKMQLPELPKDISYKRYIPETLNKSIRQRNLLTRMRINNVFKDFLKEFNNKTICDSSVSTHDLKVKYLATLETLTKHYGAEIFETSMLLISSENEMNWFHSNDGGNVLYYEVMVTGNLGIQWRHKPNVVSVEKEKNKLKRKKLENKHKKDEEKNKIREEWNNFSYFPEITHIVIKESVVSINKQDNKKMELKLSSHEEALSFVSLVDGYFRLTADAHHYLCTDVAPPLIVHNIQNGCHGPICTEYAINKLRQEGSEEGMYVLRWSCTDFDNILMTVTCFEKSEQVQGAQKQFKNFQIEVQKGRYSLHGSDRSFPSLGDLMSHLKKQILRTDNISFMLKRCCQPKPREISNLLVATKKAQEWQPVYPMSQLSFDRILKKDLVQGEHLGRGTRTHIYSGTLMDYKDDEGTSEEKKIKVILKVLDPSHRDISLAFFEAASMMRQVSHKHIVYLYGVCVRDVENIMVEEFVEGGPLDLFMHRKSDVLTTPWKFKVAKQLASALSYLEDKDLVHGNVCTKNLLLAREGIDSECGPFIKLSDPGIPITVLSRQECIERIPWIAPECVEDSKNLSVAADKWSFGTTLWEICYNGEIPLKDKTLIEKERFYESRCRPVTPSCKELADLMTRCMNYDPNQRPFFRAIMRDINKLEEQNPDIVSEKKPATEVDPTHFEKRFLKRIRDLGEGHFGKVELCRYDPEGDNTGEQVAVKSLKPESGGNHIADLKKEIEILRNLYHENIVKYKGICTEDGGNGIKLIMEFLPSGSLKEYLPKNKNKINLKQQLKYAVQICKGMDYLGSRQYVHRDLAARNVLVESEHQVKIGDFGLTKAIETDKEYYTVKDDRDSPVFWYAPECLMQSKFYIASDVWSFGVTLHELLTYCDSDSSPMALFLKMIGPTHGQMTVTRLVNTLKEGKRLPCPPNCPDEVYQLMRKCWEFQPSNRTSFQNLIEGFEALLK

For `COCCC1(n2cc(-c3nc(-c4cnn(C)c4)cc4nccn34)cn2)CN(C(=O)N(C)C)C1` [Example 99, 3-(2-methoxyethyl)-N,N-dimethyl-3-(4-(7-(1-methyl-1H-pyrazol-4-yl)imidazo[1,2-c]pyrimidin-5-yl)-1H-pyrazol-1-yl)azetidine-1-carboxamide], the IC50 against JAK3, against JAK2, on JAK1 and on Human Tyk2 kinase domain was > 1 µM each time. Moreover, in assay [1], the “activity in the in vitro assays” value is on record as “weakly active”.

The record behind these values is patent publication US20140228349A1, “5,7-SUBSTITUTED-IMIDAZO[1,2-C]PYRIMIDINES” (Array BioPharma Inc., priority 2011, published 2014).
